Assays:
mice = assay: Acute toxicity test, oral administration (LD50), mice; type: in vivo
Procedure: (§1) Acute and subacute (chronic) toxicity tests were performed using SD rats and mice which has received 3-oxygermylpropionic acid represented by Formula I (hereinafter referred to Compound a) and the above-mentioned primary composition (hereinafter called Composition b).
(§2) For experimentation, a group of 8-10 animals were used.
(§3) Oral administration (no significant
(§4) difference between Compound -a and […]

SD rats = assay: Acute toxicity test, oral administration (LD50), rats; type: in vivo
Procedure: as §1, §2, §3, §4

SD rats and mice = assay: Acute toxicity test, comparison and general symptoms; type: in vivo
Procedure: as §1, §2

SD male rats = assay: Subacute toxicity test, oral, over 3 months; type: in vivo
Procedure: as §1, §2
Over 3 months, Compound a and Composition b were orally administered to two groups of SD male rats at doses of 256, 380, 640, 1300, 1600 and 4000 mg/kg/day to determined which dose to have no toxic influence at all and which dose to induce positive poisoning.

[1] = tested on: mice with streptozosin-induced diabetes; assay: Concentration of glucose in the blood of mice with STZ-induced diabetes; type: in vivo, AKR/J1 mouse; conditions: rejection rate of 5%
Procedure: (§5) Continuous 5-day administration of streptozocin (STZ) to an AKR/J1 line mice, that ia an inbred mice with a spontaneous symptom of leukemia, can cause it to take a disease similar to human Type I diabetes (dependent upon insulin). Tests were performed for the purpose of going into influence Compound a and Composition b have on such a mice with streptozosin-induced diabetes.
(§6) Streptozocin (STZ) was continuously administrated to the abdominal cavity of a (masculine) mouse belonging to AKR/J1 at a dose of 40 mg/kg for 5 days to induce an increase in the concentration of glucose in the blood and a decrease in the amount of insulin in the pancreas.
(§7) With Compound a dissolved in a phosphate buffer solution with pH 7.4, the concentration of glucose in the blood was measured at 7 days, 14 days and 21 days from STZ dosing, using a GOD-PAP kit (made by Boehringer Mannheim) based on the glucose oxidase process for measurement. In addition, the amount of insulin in the pancreas, extracted by the acid-ethanol process, was assayed with a radio immuno assay kit (made by Pharmacia Aktiebolag) based on an immunoassay process making use of a competitive reaction by ^125 I-labeled insulin (see Soeldner, JS & Slone, D, "Diabetes", Vol. 14, pp. 771-779, 1985).
(§8) A similar mouse was caused to develop STZ-induced diabetes in a similar manner as referred to in Test Example 1.
(§9) A solution of Compound a in a phosphate buffer with pH 7.4 was continuously administered to the abdominal cavity of the animal at 5 mg/kg over 7 days from STZ dosing.
(§10) At 7 days, 14 days and 21 days from STZ dosing, the concentration of glucose in the blood and the amount of insulin in the pancreas were measured in similar manners as mentioned in Test Example 1.
(§11) A solution of Compound a in a phosphate buffer with pH 7.4 was continuously administered to the abdominal cavity of the animal at 5 mg/kg 15 days from the 7th day after STZ dosing.

[2] = tested on: mice with streptozosin-induced diabetes; assay: Amount of insulin in the pancreas of mice with STZ-induced diabetes; type: in vivo, AKR/J1 mouse; conditions: rejection rate of 5%
Procedure: as §5, §6, §7, §8, §9, §10, §11

Langerhans' islands = assay: Degree of cellular infiltration in the Langerhans' islands of mice with STZ-induced diabetes; type: in vivo, AKR/J1 mouse; conditions: for Degrees of pancreatitis, 0 (0%) / Degrees of pancreatitis, I (0-25%) / Degrees of pancreatitis, II (25-50%) / Degrees of pancreatitis, III (50-100%) / Incidence of pancreatitis (I-III): STZ + a, at 21 days; for Incidence of pancreatitis (I-III): STZ + buffer 68
Procedure: as §5
Similar mice were caused to develop STZ-induced diabetes in a similar manner as described in Test Example 1.
A solution of Compound a in a similar phosphate buffer with pH 7.4 as used in Test Example 1 was continuously administrated at a rejection rate of 5% to the abdominal cavities according to similar dosing schemes as applied in Test Examples 1, 2 and 3.
At 21 days from STZ dosing, the degree of cellular infiltration in the Langerhans' islands were assayed under an optical microscope.

[3] = Japanese Patent Kokai Publication No. Sho 61-161123; cited from earlier work

3-oxygermylpropionic acid [Compound a]
LD50 (mice; female): ≥ 5,800 mg/kg | LD50 (mice; male): ≥ 5,600 mg/kg | LD50 (SD rats; female): ≥ 7,050 mg/kg | LD50 (SD rats; male): ≥ 7,700 mg/kg | general symptoms (SD rats and mice; in vivo): general symptoms of appeasement, diarrhea, vomiting and typhlectasis | difference in acute toxicity between Compound a and Composition b (SD rats and mice; oral, mice and rats): no significant difference | dose inducing positive poisoning (SD male rats; SD male rats, oral, 3 months, daily): 1600 mg/kg | reversibility of toxic symptoms without drug treatment (SD male rats; rat, in vivo): Toxic symptoms then disappeared | dose with no toxic influence whatsoever (SD male rats; rat, in vivo, po, 131400 min): 256 mg/kg | concentration of glucose in the blood (increased by STZ) ([1]; Test Example 1, 21 days from dosing, FIG. 1(a)): significant improvements | concentration of glucose in the blood (increased by STZ) ([1]; Test Example 2, 5 mg/kg to the abdominal cavity over 7 days from STZ dosing, 21 days from dosing, FIG. 2(a)): significant improvements | concentration of glucose in the blood (increased by STZ) ([1]; Test Example 3, 5 mg/kg to the abdominal cavity 15 days from the 7th day after STZ dosing, 21 days from dosing, FIG. 3(a)): significant improvements | amount of insulin in the pancreas (decreased by STZ) ([2]; Test Example 1, 21 days from dosing, FIG. 1(b)): significant improvements | amount of insulin in the pancreas (decreased by STZ) ([2]; Test Example 2, 5 mg/kg to the abdominal cavity over 7 days from STZ dosing, 21 days from dosing, FIG. 2(b)): significant improvements | amount of insulin in the pancreas (decreased by STZ) ([2]; Test Example 3, 5 mg/kg to the abdominal cavity 15 days from the 7th day after STZ dosing, 21 days from dosing): significant improvements | Degrees of pancreatitis, 0 (0%) (Langerhans' islands; 1-7 days): 70% | Degrees of pancreatitis, I (0-25%) (Langerhans' islands; 1-7 days): 23% | Degrees of pancreatitis, II (25-50%) (Langerhans' islands; 1-7 days): 4% | Degrees of pancreatitis, III (50-100%) (Langerhans' islands; 1-7 days): 3% | Incidence of pancreatitis (I-III) (Langerhans' islands; 1-7 days): 30% | Degrees of pancreatitis, 0 (0%) (Langerhans' islands; 1-21 days (first line)): 70% | Degrees of pancreatitis, I (0-25%) (Langerhans' islands; 1-21 days (first line)): 25% | Degrees of pancreatitis, II (25-50%) (Langerhans' islands; 1-21 days (first line)): 4% | Degrees of pancreatitis, III (50-100%) (Langerhans' islands; 1-21 days (first line)): 1% | Incidence of pancreatitis (I-III) (Langerhans' islands; 1-21 days (first line)): 30% | Degrees of pancreatitis, 0 (0%) (Langerhans' islands; third line, 1-21 days): 68% | Degrees of pancreatitis, I (0-25%) (Langerhans' islands; third line, 1-21 days): 30% | Degrees of pancreatitis, II (25-50%) (Langerhans' islands; third line, 1-21 days): 1% | Degrees of pancreatitis, III (50-100%) (Langerhans' islands; third line, 1-21 days): 1% | Incidence of pancreatitis (I-III) (Langerhans' islands; third line, 1-21 days): 32% | infiltrated cells in the Langerhans' islands (increased by STZ dosing) (Langerhans' islands; Test Example 4, 21 days from dosing): successfully decreased the infiltrated cells | immunity-accommodative actions [3]: immunity-accommodative actions

From US5180739A, “Use of 3-oxygermylpropionic acid to treat and prevent diabetes-dependent type of autoimmune diseases” (Sanwa Kagaku Kenkyusho Co., Ltd., priority 1990, dated 1993)
